Laboratory results as given in BindingDB's records for doi:10.1016/j.bmcl.2012.05.114 (Vertex Pharmaceuticals, 2012).

Target: Tyrosine-protein kinase SYK (Homo sapiens) (UniProt P43405)
Assay: Inhibition of SYK

Ki: > 4 µM
SMILES: CC(C)C[C@H]1CN(c2ccc(C(F)(F)F)c(C(=O)c3cccnc3N)n2)CCN1
